Experimental data published in patent US20230000936A1, “A[…] ITCHING […] C[…]” (Demetrix, Inc., priority 2021, published 2023).

Assays:
Assay type in all cases: cell-based
CHRM2 [1] = target: T1, CHRM2 (Homo sapiens, UniProt P08172); experiment: IC50 antagonist activity screen, PathHunter β-Arrestin, CHRM2; details: maximum of IC50 curve
T1 sequence (P08172 1-466): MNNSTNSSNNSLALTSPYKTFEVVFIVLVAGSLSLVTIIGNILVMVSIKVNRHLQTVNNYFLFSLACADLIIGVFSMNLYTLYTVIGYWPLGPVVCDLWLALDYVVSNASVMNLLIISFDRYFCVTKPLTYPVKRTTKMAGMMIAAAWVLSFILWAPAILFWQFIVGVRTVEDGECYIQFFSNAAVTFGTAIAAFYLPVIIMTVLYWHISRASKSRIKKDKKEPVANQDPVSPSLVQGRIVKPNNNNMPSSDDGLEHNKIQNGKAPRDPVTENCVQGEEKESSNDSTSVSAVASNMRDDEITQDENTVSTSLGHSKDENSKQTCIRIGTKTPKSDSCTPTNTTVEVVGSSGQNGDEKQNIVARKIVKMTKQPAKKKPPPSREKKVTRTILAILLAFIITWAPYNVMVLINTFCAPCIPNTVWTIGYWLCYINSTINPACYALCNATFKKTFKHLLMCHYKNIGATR
Procedure: (§1) In each of the antagonist assays, PathHunter® cell lines were removed from a freezer stock and seeded at a volume of 20 μL into white walled, 384-well microplates and incubated at 37° C. Each cell was pre-incubated with an antagonist followed by an agonist challenge at the EC80 concentration. Cells were then diluted to generate a 5× sample in assay buffer. 5 μL of the 5× sample was then added to cells and incubated at 37° C. for 30 minutes. Finally, 5 μL of 6×EC80 agonist in assay buffer were added to the cells and incubated at 37° C. for 90 minutes or 180 minutes. The assay signal was generated through addition of 12.5 μL or 15 μL (50% V/V) of a detection reagent cocktail followed by a one hour incubation time at room temperature. Microplates were read following signal generation with a PerkinElmer Envision™ (PerkinElmer Inc., Waltham, Mass.) for chemiluminescent signal detection. Reactivity was analyzed using the CBIS data analysis suite (ChemInnovation, CA) where RLU refers to the raw measured values. The percent inhibition was calculated using the formula: % Inhibition=100%*(1−mean RLU of test sample−mean RLU of control)/(mean RLU of EC80 control−mean RLU of vehicle control).
(§2) IC50 curves were measured using the same GPCR assay, PathHunter® β-Arrestin from Eurofins DiscoverX Products (Fremont, Calif.), as the GPCR reactivity screen. As used herein, strong activity against a receptor is considered a maximum activity of about 42% or higher. Higher results for antagonism against CHRM2, EDGE, and MRGPRX2 are considered better. It is further considered better when a cannabinoid inhibits more than one of the receptors.

MRGPRX2 [2] = target: T2, MRGPRX2 (Homo sapiens, UniProt Q96LB1); experiment: IC50 antagonist activity screen, PathHunter β-Arrestin, MRGPRX2; details: maximum of IC50 curve
T2 sequence (Q96LB1 1-330): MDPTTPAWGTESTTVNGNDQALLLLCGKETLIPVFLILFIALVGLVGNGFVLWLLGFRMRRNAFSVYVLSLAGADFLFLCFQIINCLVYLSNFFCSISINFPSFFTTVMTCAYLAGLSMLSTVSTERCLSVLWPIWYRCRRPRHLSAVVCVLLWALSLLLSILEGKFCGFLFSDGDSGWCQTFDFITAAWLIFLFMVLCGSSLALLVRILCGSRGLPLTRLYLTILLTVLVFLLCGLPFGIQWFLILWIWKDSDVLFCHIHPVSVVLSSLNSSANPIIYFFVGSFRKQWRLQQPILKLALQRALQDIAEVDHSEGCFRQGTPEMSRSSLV
Procedure: as §1, §2

CHRM2 [3] = target: T1, CHRM2; experiment: GPCR reactivity screen, PathHunter β-Arrestin, agonist assay CHRM2; parameters: concentration or dose not given beside the values; details: agonist mode; control acetylcholine
Procedure: (§3) To evaluate the role specific cannabinoid compounds play in the neurological signaling pathway for itching, a GPCR reactivity assay was performed to determine the reactivity of 19 cannabinoid compounds to each of CHRM2, EDG3, and MRGPRX2. The evaluated cannabinoid compounds were: CBN, THCV, CBDVA, CBG, CBL, CBC, CBDV, CBDA, CBD, CBGA, (+)-CBD, CBG-C4, CBD-C1, CBD-C2, CBGV, CBGA-C4, CBGVA, CBCA, and CBLA. Acetylcholine was used as the control for CHRM2, sphingosine-1-phosphate was used as the control for EDG3; and cortistatin 14 was used as the control for MRGPRX2.
(§4) A total of six assays were run. Specifically, agonist and antagonist assays were run for each of CHRM2, EDG3, and MRGPRX2. In each of the three agonist assays, PathHunter® cell lines were removed from a freezer stock and seeded at a volume of 20 μL into white walled, 384-well microplates and incubated at 37° C. Each cell was incubated with a sample to induce a response and then diluted to generate a 5× sample in assay buffer. 5 μL of the 5× sample was then added to cells and incubated at 37° C. for 90 or 180 minutes. The final assay concentration was 1%. The assay signal was generated through addition of 12.5 μL or 15 μL (50% V/V) of a detection reagent cocktail followed by a one hour incubation time at room temperature. Microplates were read following signal generation with a PerkinElmer Envision™ (PerkinElmer Inc., Waltham, Mass.) for chemiluminescent signal detection. Reactivity was analyzed using the CBIS data analysis suite (ChemInnovation, CA) where RLU refers to the raw measured values. The percent activity was then calculated using the formula: % Activity=100%*(mean RLU of test sample−mean RLU of control)/(mean max control ligand−mean RLU of vehicle control).
(§5) As used herein, strong activity against a receptor is considered a percent activity of about 42% or higher. Higher results for antagonism against CHRM2, EDGE, and MRGPRX2 are considered better. It is further considered better when a cannabinoid inhibits more than one of the receptors.

EDG3 [4] = target: T3, EDG3 (Homo sapiens, UniProt Q99500); experiment: IC50 antagonist activity screen, PathHunter β-Arrestin, EDG3; details: maximum of IC50 curve
T3 sequence (Q99500 whole entry): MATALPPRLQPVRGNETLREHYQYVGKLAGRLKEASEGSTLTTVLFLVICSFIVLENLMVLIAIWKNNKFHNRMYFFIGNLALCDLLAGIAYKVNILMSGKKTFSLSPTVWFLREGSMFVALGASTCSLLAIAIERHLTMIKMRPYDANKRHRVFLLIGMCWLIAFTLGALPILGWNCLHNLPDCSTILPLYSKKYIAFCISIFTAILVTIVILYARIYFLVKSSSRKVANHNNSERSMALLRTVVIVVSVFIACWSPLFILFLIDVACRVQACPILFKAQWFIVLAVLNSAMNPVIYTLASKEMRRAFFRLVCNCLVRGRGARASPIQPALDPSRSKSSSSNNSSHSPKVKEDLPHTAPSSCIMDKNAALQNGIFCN
Procedure: as §1, §2

CHRM2 [5] = target: T1, CHRM2; experiment: GPCR reactivity screen, PathHunter β-Arrestin, antagonist assay CHRM2; details: for antagonist activity against CHRM2 (in words): GPCR reactivity screen; for CHRM2 (Antagonist) percent inhibition: antagonist mode, agonist challenge at EC80
Procedure: as §3, §1, §5

EDG3 [6] = target: T3, EDG3; experiment: GPCR reactivity screen, PathHunter β-Arrestin, antagonist assay EDG3; details: for antagonist activity against EDG3 (in words): GPCR reactivity screen; for EDG3 (Antagonist) percent inhibition: antagonist mode, agonist challenge at EC80
Procedure: as §3, §1, §5

MRGPRX2 [7] = target: T2, MRGPRX2; experiment: GPCR reactivity screen, PathHunter β-Arrestin, antagonist assay MRGPRX2; details: for antagonist activity against MRGPRX2 (in words): GPCR reactivity screen; for MRGPRX2 (Antagonist) percent inhibition: antagonist mode, agonist challenge at EC80
Procedure: as §3, §1, §5

MRGPRX2 [8] = target: T2, MRGPRX2; experiment: GPCR reactivity screen, PathHunter β-Arrestin, agonist assay MRGPRX2; details: agonist mode; control cortistatin 14
Procedure: as §3, §4, §5

EDG3 [9] = target: T3, EDG3; experiment: GPCR reactivity screen, PathHunter β-Arrestin, agonist assay EDG3; parameters: concentration or dose not given beside the values; details: agonist mode; control sphingosine-1-phosphate
Procedure: as §3, §4, §5

Compound | maximum inhibition (antagonism) CHRM2 (CHRM2 [1]) [%] | maximum inhibition (antagonism) MRGPRX2 (MRGPRX2 [2]) [%] | CHRM2 (Agonist) percent activity (CHRM2 [3]) [%] | maximum inhibition (antagonism) EDG3 (EDG3 [4]) [%] | antagonist activity against CHRM2 (in words) (CHRM2 [5]) | CHRM2 (Antagonist) percent inhibition (CHRM2 [5]) [%] | antagonist activity against EDG3 (in words) (EDG3 [6]) | EDG3 (Antagonist) percent inhibition (EDG3 [6]) [%] | antagonist activity against MRGPRX2 (in words) (MRGPRX2 [7]) | MRGPRX2 (Antagonist) percent inhibition (MRGPRX2 [7]) [%] | MRGPRX2 (Agonist) percent activity (MRGPRX2 [8]) [%] | EDG3 (Agonist) percent activity (EDG3 [9]) [%]
CCCCCc1cc(O)c2c(c1)OC(C)(CCC=C(C)C)C=C2 (stereo not drawn) [CBC, cannabichromene] | 85 | 91 | 12 | 43 | strong to moderate antagonist activity | 89 | strong to moderate antagonist activity | 48 | strong to moderate antagonist activity | 89 | 9 | −1
C=C(C)[C@@H]1CCC(C)=C[C@H]1c1c(O)cc(CCCCC)cc1O [CBD, cannabidol] | 75 | 96 | 12 | 30 | antagonist activity | 81 |  | 35 | antagonist activity | 85 | 11 | 2
CCCCCc1cc(O)c(C/C=C(\C)CCC=C(C)C)c(O)c1 [CBG, cannabigerol] | 13 | 92 | 0 | 36 |  | 20 |  | 42 | antagonist activity | 96 | 2 | 8
(+)-cannabidiol [(+)-CBD] | 62 | 94 | 7 | 24 | strong to moderate antagonist activity | 67 | strong to moderate antagonist activity | 55 | strong to moderate antagonist activity | 92 | 9 | 21
